The values that follow come from ChEMBL document CHEMBL6103537 (J Med Chem, 2025).

pKi: −log10 of the molar value. Activity calls are given as the source filed them. The rule behind the calls is not given here. Some results are limits rather than exact numbers.

The target of assay [1] is T1, Signal transducer and activator of transcription 6 (Homo sapiens, UniProt P42226).
T1 sequence (P42226 whole entry): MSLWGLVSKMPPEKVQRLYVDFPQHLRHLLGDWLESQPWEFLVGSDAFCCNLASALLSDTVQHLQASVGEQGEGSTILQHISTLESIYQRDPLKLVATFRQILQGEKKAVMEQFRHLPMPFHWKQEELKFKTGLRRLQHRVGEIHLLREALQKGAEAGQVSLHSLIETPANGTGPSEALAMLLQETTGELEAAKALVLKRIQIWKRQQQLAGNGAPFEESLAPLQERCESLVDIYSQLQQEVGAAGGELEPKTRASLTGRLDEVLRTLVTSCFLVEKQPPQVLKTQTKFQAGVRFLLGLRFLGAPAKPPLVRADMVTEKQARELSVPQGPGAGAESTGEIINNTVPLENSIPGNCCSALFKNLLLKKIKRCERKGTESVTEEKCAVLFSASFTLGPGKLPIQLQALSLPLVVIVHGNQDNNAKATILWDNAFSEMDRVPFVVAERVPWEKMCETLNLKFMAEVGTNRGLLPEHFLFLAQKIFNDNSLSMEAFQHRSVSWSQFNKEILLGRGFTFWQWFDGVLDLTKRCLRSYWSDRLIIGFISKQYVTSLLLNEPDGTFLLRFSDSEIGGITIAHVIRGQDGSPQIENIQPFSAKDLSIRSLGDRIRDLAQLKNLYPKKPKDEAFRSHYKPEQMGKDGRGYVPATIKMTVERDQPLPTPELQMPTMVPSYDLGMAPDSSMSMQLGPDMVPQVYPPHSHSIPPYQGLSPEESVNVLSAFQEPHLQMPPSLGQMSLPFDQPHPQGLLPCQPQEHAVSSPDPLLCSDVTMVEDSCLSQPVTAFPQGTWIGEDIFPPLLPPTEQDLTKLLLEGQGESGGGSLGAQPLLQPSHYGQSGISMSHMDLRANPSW
Put plainly: Binding affinity to N-terminal his6-tgged STAT6 (unknown origin) (113 to 658 residues) assessed as inhibition constant incubated for 1 hr by fluorescence polarization assay. (In general: In fluorescence polarisation assays a small probe gives low polarisation when free and higher when bound to something large.)

Assay [2] has as its target T2, Signal transducer and activator of transcription 5A (Homo sapiens, UniProt P42229).
T2 sequence (P42229 whole entry): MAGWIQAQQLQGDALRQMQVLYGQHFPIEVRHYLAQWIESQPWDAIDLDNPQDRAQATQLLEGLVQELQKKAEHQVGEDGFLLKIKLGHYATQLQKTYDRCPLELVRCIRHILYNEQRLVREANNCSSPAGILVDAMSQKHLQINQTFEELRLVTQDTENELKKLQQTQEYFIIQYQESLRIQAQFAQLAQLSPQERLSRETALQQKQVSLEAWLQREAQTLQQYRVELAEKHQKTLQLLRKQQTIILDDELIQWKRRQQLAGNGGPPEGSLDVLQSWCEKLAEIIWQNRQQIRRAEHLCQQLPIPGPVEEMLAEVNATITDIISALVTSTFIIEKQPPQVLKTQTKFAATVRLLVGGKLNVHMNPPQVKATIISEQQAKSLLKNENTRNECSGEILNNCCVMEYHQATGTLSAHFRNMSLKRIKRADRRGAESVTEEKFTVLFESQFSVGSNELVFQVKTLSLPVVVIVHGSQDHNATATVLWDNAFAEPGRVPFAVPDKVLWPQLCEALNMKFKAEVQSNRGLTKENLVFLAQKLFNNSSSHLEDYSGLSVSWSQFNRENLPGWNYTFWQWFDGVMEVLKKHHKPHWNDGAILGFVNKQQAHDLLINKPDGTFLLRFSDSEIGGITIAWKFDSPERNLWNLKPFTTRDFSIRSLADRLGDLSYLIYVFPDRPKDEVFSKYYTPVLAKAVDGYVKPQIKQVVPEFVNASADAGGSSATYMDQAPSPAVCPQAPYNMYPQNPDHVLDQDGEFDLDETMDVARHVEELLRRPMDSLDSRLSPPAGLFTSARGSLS
Put plainly: Binding affinity to STAT5A (unknown origin) assessed as inhibition constant incubated for 1 hr by fluorescence polarization assay.

Assay [3] deals with T3, Signal transducer and activator of transcription 5B (Homo sapiens, UniProt P51692).
T3 sequence (P51692 whole entry): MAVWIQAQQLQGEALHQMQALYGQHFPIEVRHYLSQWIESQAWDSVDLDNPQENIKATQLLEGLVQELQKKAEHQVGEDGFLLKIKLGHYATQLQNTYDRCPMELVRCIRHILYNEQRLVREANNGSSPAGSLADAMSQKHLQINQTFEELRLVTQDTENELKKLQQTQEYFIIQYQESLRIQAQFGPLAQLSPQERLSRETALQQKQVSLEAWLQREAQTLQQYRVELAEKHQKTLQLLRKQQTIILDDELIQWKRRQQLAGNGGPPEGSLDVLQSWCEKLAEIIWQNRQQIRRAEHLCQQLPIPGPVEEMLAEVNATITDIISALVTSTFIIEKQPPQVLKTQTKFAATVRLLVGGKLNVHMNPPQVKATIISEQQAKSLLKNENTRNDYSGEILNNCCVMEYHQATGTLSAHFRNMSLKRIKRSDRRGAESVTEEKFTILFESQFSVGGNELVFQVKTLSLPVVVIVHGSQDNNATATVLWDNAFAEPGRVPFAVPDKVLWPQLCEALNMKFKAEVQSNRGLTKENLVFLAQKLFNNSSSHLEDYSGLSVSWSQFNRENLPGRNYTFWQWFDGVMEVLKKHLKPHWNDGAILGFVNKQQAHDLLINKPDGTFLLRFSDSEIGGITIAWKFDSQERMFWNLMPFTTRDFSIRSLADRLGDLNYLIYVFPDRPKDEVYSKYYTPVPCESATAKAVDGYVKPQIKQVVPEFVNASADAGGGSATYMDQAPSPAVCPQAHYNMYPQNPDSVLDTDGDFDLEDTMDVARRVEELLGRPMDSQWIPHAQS
Put plainly: Binding affinity to STAT5B (unknown origin) assessed as inhibition constant incubated for 1 hr by fluorescence polarization assay.

The target of assay [4] is T4, Protein cereblon/Signal transducer and activator of transcription 6 (Homo sapiens, UniProt P42226+Q96SW2). Put plainly: PROTAC activity at STAT6/CRBN in human MV4-11 cells assessed as reduction in STAT6 level at 0.5 uM measured upto 1200 mins by HiBiT bioluminescence assay. The assay is classed as cell-based. For orientation: With HiBiT, luminescence reflects the tagged protein that the partner subunit can reach.

Assay [5] deals with T4, Protein cereblon/Signal transducer and activator of transcription 6. Put plainly: PROTAC activity at STAT6/CRBN in human MV4-11 cells assessed as reduction in STAT6 level at upto 10 uM incubated for 12 hrs by Western blot analysis. The assay is classed as cell-based.
Assay [6] has as its target Protein cereblon/Signal transducer and activator of transcription 5A/Signal transducer and activator of transcription 5B (Homo sapiens) (UniProt P42229+P51692+Q96SW2). Put plainly: PROTAC activity at STAT5/CRBN in human PBMC cells assessed as reduction in STAT5 level at 10 uM incubated for 18 hrs by Western blot analysis relative to control. The assay is classed as cell-based. A general note: A western blot detects proteins with antibodies after separation by electrophoresis.

The target in assay [7] is Protein cereblon/Signal transducer and activator of transcription 1-alpha/beta (Homo sapiens) (UniProt P42224+Q96SW2). Put plainly: PROTAC activity at STAT1/CRBN in human PBMC cells assessed as reduction in STAT1 level at 10 uM incubated for 18 hrs by Western blot analysis relative to control. The assay is classed as cell-based.
Assay [8] addresses Protein cereblon/Signal transducer and activator of transcription 2 (Homo sapiens) (UniProt Q96SW2+P52630). Put plainly: PROTAC activity at STAT2/CRBN in human PBMC cells assessed as reduction in STAT2 level at 10 uM incubated for 18 hrs by Western blot analysis relative to control. The assay is classed as cell-based.
The target in assay [9] is Protein cereblon/Signal transducer and activator of transcription 3 (Homo sapiens) (UniProt P40763+Q96SW2). Put plainly: PROTAC activity at STAT3/CRBN in human PBMC cells assessed as reduction in STAT3 level at 10 uM incubated for 18 hrs by Western blot analysis relative to control. The assay is classed as cell-based.
Assay [10] deals with Protein cereblon/Signal transducer and activator of transcription 4 (Homo sapiens) (UniProt Q96SW2+Q14765). Put plainly: PROTAC activity at STAT4/CRBN in human PBMC cells assessed as reduction in STAT4 level at 10 uM incubated for 18 hrs by Western blot analysis relative to control. The assay is classed as cell-based.
Assay [11] concerns the target T4, Protein cereblon/Signal transducer and activator of transcription 6. Put plainly: PROTAC activity at STAT6/CRBN in human L-1236 cells assessed as reduction in STAT6 level at 10 uM incubated for 24 hrs by Western blot analysis. The assay is classed as cell-based.
Assay [12] has the same target. Put plainly: PROTAC activity at STAT6 at Y641 residue/CRBN in human L-1236 cells assessed as reduction in STAT6 level at 10 uM incubated for 24 hrs by Western blot analysis. The assay is classed as cell-based.
Assay [13] shares this target. Put plainly: PROTAC activity at STAT6/CRBN in human MV4-11 cells assessed as reduction in STAT6 level incubated for 12 hrs by Western blot analysis. The assay is classed as cell-based.
Assay [14] shares this target. Put plainly: PROTAC activity at STAT6/CRBN in human MV4-11 cells assessed as reduction in STAT6 level at 5 uM incubated for 12 hrs by Western blot analysis relative to control. The assay is classed as cell-based.

As for `CC(C)(C)[C@H](NC(=O)c1cc2cc(C(F)(F)P(=O)(O)O)ccc2s1)C(=O)N1CCC[C@H]1C(=O)N1CCOC(c2ccccc2F)C1` (stereo partly drawn), the pKi (in general, −log10 of the Ki, conventionally taken in molar units) in assay [1] was 6.96; in [2] it was below 5.30; in assay [3], 5.62.
For `CC(C)(C)[C@H](NC(=O)c1cc2cc(C(F)(F)P(=O)(O)O)ccc2s1)C(=O)N1CCC[C@H]1C(=O)N1CCOC(c2ccc3ccccc3c2)C1` (stereo partly drawn) the same measures were 7.08, 5.85 and 6.10.
For `CC(C)(C)[C@H](NC(=O)c1cc2cc(C(F)(F)P(=O)(O)O)ccc2s1)C(=O)N1CCC[C@H]1C(=O)N1CCOC(c2ccc(F)cc2)C1` (stereo partly drawn) the same measures were 6.66, below 5.30 and 5.36.
For the molecule `NS(=O)(=O)OC[C@@H]1C[C@@H](n2ccc3c(N[C@H]4CCc5ccccc54)ncnc32)C[C@@H]1O`, in [4], the Activity result is “No effect”.
As for `CC(C)(C)[C@H](NC(=O)c1cc2cc(C(F)(F)P(=O)(O)O)ccc2s1)C(=O)N1CCC[C@H]1C(=O)N1CCOC(c2ccc(F)cc2F)C1` (stereo partly drawn), the pKi in assay [1] was 6.38; in assay [2] it was below 5.30; in assay [3] it was below 5.30.
As for `CN1C(=O)CCC(N2Cc3c(C#CCCCCCO[C@H]4C[C@@H](C(=O)N5CCO[C@H](c6ccccc6)C5)N(C(=O)[C@@H](NC(=O)c5cc6cc(C(F)(F)P(=O)(O)O)ccc6s5)C(C)(C)C)C4)cccc3C2=O)C1=O` (stereo partly drawn), the outcome in [5] was inactive. Moreover, the Activity result in assay [6], in assay [7], in assay [8], in assay [9], in [10] and in [11] was “No effect” in each case. Further, the Activity result in [12] is “No effect”.
As to `CC(C)(C)[C@H](NC(=O)c1cc2cc(C(F)(F)P(=O)(O)O)ccc2s1)C(=O)N1CCC[C@H]1C(=O)N1CCOC(C2CCCCC2)C1` (stereo partly drawn), the pKi is 6.30 in assay [1], 5.74 in assay [2] and 6.70 in assay [3].
For `CC(C)(C)[C@H](NC(=O)c1cc2cc(C(F)(F)P(=O)(O)O)ccc2s1)C(=O)N1CCC[C@H]1C(=O)N1CCSC(c2ccccc2)C1` (stereo partly drawn) the same measures were 7.10, 5.85 and 5.74.
Take `CC(C)(C)[C@H](NC(=O)c1cc2cc(C(F)(F)P(=O)(O)O)ccc2s1)C(=O)N1CCC[C@H]1C(=O)N1CCOC(c2cccnc2)C1` (stereo partly drawn): the pKi was 6.51 in [1], below 5.30 in assay [2] and below 5.30 in assay [3].
Take `CC(C)(C)[C@H](NC(=O)c1cc2cc(C(F)(F)P(=O)(O)O)ccc2s1)C(=O)N1CCC[C@H]1C(=O)N1CCOC(Cc2ccccc2)C1` (stereo partly drawn): the figures for the pKi in assay [1], in [2] and in assay [3] were 5.89, below 5.30 and below 5.30, respectively.
Turning to `CC(C)(C)[C@H](NC(=O)c1cc2cc(C(F)(F)P(=O)(O)O)ccc2s1)C(=O)N1C[C@@H](NC(=O)CCCC#Cc2cccc3c2CN(C2CCC(=O)NC2=O)C3=O)C[C@H]1C(=O)N1CCO[C@H](c2ccccc2)C1` (stereo partly drawn), the DC50 in assay [13] turned out to be 0.26 µM. Moreover, the Emax (commonly the size of the effect at its maximum, as opposed to the concentration needed) in assay [14] is above 95%.
In the case of `CC(C)(C)[C@H](NC(=O)c1cc2cc(C(F)(F)P(=O)(O)O)ccc2s1)C(=O)N1CCC[C@H]1C(=O)N1CCOC(c2ccncc2)C1` (stereo partly drawn), the pKi in assay [1] is 5.96; in assay [2], below 5.30; in [3], below 5.30.
